From US7803600B2 (priority 2002, dated 2010)

Key:
[1] = system: COR-L23 cells; assay: Cell proliferation assay (MTT), COR-L23 parental; format: cell-based; details: Homo sapiens, 96 h, 4-day incubation, mean ± SE of at least two experiments, read-out: Sensitivity to cell killing, IC50
Procedure: (§1) The activity of the compound of formula (I) on P-glycoprotein- or Multidrug Resistant Protein-expressing tumour cell lines and respective parental cells, K562/C1,000+ and K562A7, COR-L23/R and COR-L23, was compared to that of a known substrate for P-glycoprotein/Multidrug Resistant Protein, adriamycin.
(§2) All samples tested were dissolved in DMSO and further dilutions (typically 1:1,000) were made in culture medium, with final DMSO concentrations never exceeding 0.1% (v/v) in cell proliferation assays. MTT [3-(4,5-dimethylthiazol-2-yl)-2,5-diphenyltetrazolium bromide], MTS [3-(4,5-dimethylthiazol-2-yl)-5-(3-carboxymethoxyphenyl)-2-(4-sulfophenyl)-2H-tetrazolium inner salt] and PMS [phenazine methosulfate] were dissolved in phosphate-buffered saline (PBS).
(§3) MTT and MTS are both tetrazolium salts widely used in cell proliferation and toxicity tests. Upon entry in a viable cell, these tetrazolium salts are (bio)reduced to an intensely colored formazan derivative. In case of MTT, the formed formazan is crystalline and needs to be dissolved before colorimetric quantification. MTS needs an intermediate electron acceptor (PMS) for its efficient reduction into a soluble formazan end product and is used for suspension cell lines. […]

[2] = system: K562A7 parental leukemia cells; assay: Cell proliferation assay (MTS/PMS), K562A7 parental; format: cell-based; details: Homo sapiens, 96 h, 4-day incubation, mean ± SE of at least two experiments, read-out: Sensitivity to cell killing, IC50
Procedure: as §1, §2, §3

[3] = system: K562/C1,000+ cells; assay: Cell proliferation assay (MTS/PMS), K562/C1,000+ P-glycoprotein overexpressing; format: cell-based, human
Procedure: as §1, §2, §3

[4] = system: COR-L23/R cells; assay: Cell proliferation assay (MTT), COR-L23/R Multidrug Resistant Protein overexpressing; format: cell-based, human
Procedure: as §1, §2, §3

Molecule COc1cccc2c1C(=O)c1c(O)c3c(c(O)c1C2=O)C[C@@](O)(C(=O)CO)C[C@@H]3O[C@H]1C[C@H](N)[C@H](O)[C@H](C)O1 [Adriamycin, adriamycin] has an IC50 [1] of 36.6 ± 19.1 nM, an IC50 [2] of 26.8 ± 5.82 nM and an IC50 ([3]; Homo sapiens, 96 h, K562/C1,000+ P-glycoprotein overexpressing cells, 4-day incubation, mean ± SE of at least two experiments, read-out: Sensitivity to cell killing, IC50) of 7830 nM. For the same molecule, the “Resistance to cell killing as compared to parental cell line” value ([3]; K562/C1,000+ versus parental K562A7) was 250 fold, the “Resistance to cell killing as compared to parental cell line” value ([4]; COR-L23/R versus parental COR-L23) was 20 fold and the IC50 ([4]; Homo sapiens, 96 h, COR-L23/R Multidrug Resistant Protein overexpressing cells, 4-day incubation, mean ± SE of at least two experiments, read-out: Sensitivity to cell killing, IC50) was 676 ± 261 nM.
